HELM strings list units from the 5' end as sugar, base in round brackets, then linkage (d deoxyribose, r ribose, m 2'-O-methyl, p phosphodiester). Strings are as the collection lists them, not checked against the first reports. ss, as = sense and antisense strand; [lna] = locked nucleic acid (LNA); [hna] = hexitol nucleic acid; [s4r] = 4'-thioribose; [fl2r] = 2'-fluoro
Also: test system not given here.

The conditions of the data set: siRNA.
“RNA1{[fl2r](A)p.r(A)p.[fl2r](G)p.r(G)p.[fl2r](A)p.r(C)p.[fl2r](C)p.r(U)p.[fl2r](A)p.r(G)p.[fl2r](A)p.r(G)p.[fl2r](G)p.r(A)p.[fl2r](G)p.r(U)p.[fl2r](C)p.r(A)p.r(C)p.r(T)p.r(T)}|RNA2{r(G)p.r(U)p.r(G)p.r(A)p.r(C)p.r(U)p.r(C)p.r(C)p.r(U)p.r(C)p.r(U)p.r(A)p.r(G)p.r(G)p.r(U)p.r(C)p.r(C)p.r(U)p.r(U)p.r(T)p.r(T)}$$$RNA1{StrandType:ss}|RNA2{StrandType:as}$” had a target mRNA knockdown of 31%. The figure for “RNA1{r(G)p.[hna](A)p.r(C)p.r(G)p.r(U)p.r(A)p.r(A)p.[hna](A)p.r(C)p.r(G)p.r(G)p.r(C)p.r(C)p.[hna](A)p.r(C)p.r(A)p.[hna](A)p.r(G)p.r(U)p.r(U)p.r(C)}|RNA2{[fl2r](A)p.m(C)p.[fl2r](U)p.m(U)p.[fl2r](G)p.m(U)p.[fl2r](G)p.m(G)p.[fl2r](C)p.m(C)p.[fl2r](G)p.m(U)p.[fl2r](U)p.m(U)p.[fl2r](A)p.m(C)p.[fl2r](G)p.m(U)p.[fl2r](C)p.m(G)p.[fl2r](C)}$$$RNA1{StrandType:ss}|RNA2{StrandType:as}$” is 7.8%.

As for “RNA1{r(G)p.r(A)p.r(A)p.m(U)p.r(A)p.r(A)p.r(C)p.r(C)p.r(U)p.r(G)p.r(A)p.r(A)p.r(C)p.r(G)p.r(U)p.m(C)p.r(A)p.r(C)p.r(C)p.r(T)p.r(T)}|RNA2{r(G)p.r(G)p.r(U)p.r(G)p.r(A)p.r(C)p.r(G)p.r(U)p.r(U)p.m(C)p.r(A)p.r(G)p.r(G)p.r(U)p.r(U)p.r(A)p.r(U)p.r(U)p.r(C)p.r(T)p.r(T)}$$$RNA1{StrandType:ss}|RNA2{StrandType:as}$”, the target mRNA knockdown was found to be 71%. Substance “RNA1{r(A)p.r(A)p.r(C)p.r(U)p.r(U)p.r(C)p.r(U)p.r(G)p.r(G)p.r(G)p.r(A)p.r(G)p.r(C)p.r(C)p.r(U)p.r(C)p.m(C)p.r(A)p.r(A)p.r(T)p.r(T)}|RNA2{r(U)p.r(U)p.r(G)p.r(G)p.r(A)p.r(G)p.r(G)p.r(C)p.r(U)p.r(C)p.r(C)p.m(C)p.r(A)p.r(G)p.r(A)p.r(A)p.r(G)p.r(U)p.r(U)p.r(T)p.r(T)}$$$RNA1{StrandType:ss}|RNA2{StrandType:as}$” showed a target mRNA knockdown of 73%. The same measure for “RNA1{[fl2r](A)p.r(U)p.r(C)p.[fl2r](G)p.[fl2r](A)p.r(C)p.r(C)p.r(U)p.[fl2r](G)p.[fl2r](A)p.[fl2r](A)p.[fl2r](G)p.[fl2r](G)p.[fl2r](A)p.[fl2r](G)p.r(U)p.[fl2r](A)p.r(C)p.[fl2r](G)p.r(T)p.r(T)}|RNA2{r(C)p.[fl2r](G)p.r(U)p.[fl2r](A)p.r(C)p.r(U)p.r(C)p.r(C)p.r(U)p.r(U)p.r(C)p.[fl2r](A)p.[fl2r](G)p.[fl2r](G)p.r(U)p.r(C)p.[fl2r](G)p.[fl2r](A)p.r(U)p.r(T)p.r(T)}$$$RNA1{StrandType:ss}|RNA2{StrandType:as}$”: 21%; for “RNA1{r(G)p.r(C)p.r(A)p.r(A)p.r(G)p.r(U)p.r(G)p.r(G)p.r(C)p.r(A)p.r(A)p.r(G)p.r(A)p.r(G)p.r(G)p.r(A)p.r(U)p.m(U)p.r(A)p.r(T)p.r(T)}|RNA2{m(U)p.r(A)p.r(A)p.r(U)p.r(C)p.r(C)p.r(U)p.r(C)p.r(U)p.r(U)p.r(G)p.r(C)p.r(C)p.r(A)p.r(C)p.r(U)p.r(U)p.r(G)p.r(C)p.r(T)p.r(T)}$$$RNA1{StrandType:ss}|RNA2{StrandType:as}$”: 69%; for “RNA1{r(G)p.m(C)p.r(A)p.r(A)p.r(G)p.r(U)p.r(G)p.r(G)p.r(C)p.r(A)p.r(A)p.r(G)p.r(A)p.r(G)p.r(G)p.r(A)p.r(U)p.m(U)p.r(A)p.r(T)p.r(T)}|RNA2{m(U)p.r(A)p.r(A)p.r(U)p.r(C)p.r(C)p.r(U)p.r(C)p.r(U)p.m(U)p.r(G)p.r(C)p.m(C)p.r(A)p.r(C)p.r(U)p.m(U)p.r(G)p.r(C)p.r(T)p.r(T)}$$$RNA1{StrandType:ss}|RNA2{StrandType:as}$”: 68%. The figure for “RNA1{m(G)p.r(A)p.m(G)p.r(G)p.m(A)p.r(U)p.m(G)p.r(G)p.m(A)p.r(U)p.m(U)p.r(C)p.m(G)p.r(A)p.m(C)p.r(U)p.m(U)p.r(A)p.r(G)p.r(T)p.r(T)}|RNA2{r(C)p.m(U)p.r(A)p.r(A)p.r(G)p.m(U)p.r(C)p.r(G)p.r(A)p.r(A)p.m(U)p.r(C)p.r(C)p.r(A)p.r(U)p.r(C)p.r(C)p.r(U)p.r(C)p.r(T)p.r(T)}$$$RNA1{StrandType:ss}|RNA2{StrandType:as}$” is 23%; for “RNA1{r(G)p.r(G)p.r(G)p.r(A)p.r(G)p.r(G)p.r(A)p.r(U)p.[fl2r](G)p.r(A)p.r(C)p.[fl2r](A)p.r(A)p.r(A)p.r(G)p.r(A)p.r(A)p.r(G)p.r(C)p.r(T)p.r(T)}|RNA2{r(G)p.r(C)p.r(U)p.r(U)p.r(C)p.r(U)p.r(U)p.[fl2r](U)p.r(G)p.r(U)p.r(C)p.r(A)p.r(U)p.r(C)p.r(C)p.r(U)p.r(C)p.r(C)p.r(C)p.r(T)p.r(T)}$$$RNA1{StrandType:ss}|RNA2{StrandType:as}$” it is 84%. The figure for “RNA1{r(G)p.[hna](A)p.r(C)p.r(G)p.r(U)p.r(A)p.r(A)p.[hna](A)p.r(C)p.r(G)p.r(G)p.r(C)p.r(C)p.[hna](A)p.r(C)p.r(A)p.[hna](A)p.r(G)p.r(U)p.r(U)p.r(C)}|RNA2{r(A)p.r(C)p.r(U)p.r(U)p.r(G)p.r(U)p.r(G)p.r(G)p.r(C)p.r(C)p.r(G)p.r(U)p.r(U)p.r(U)p.r(A)p.r(C)p.r(G)p.r(U)p.[lna](C)p.[lna](G)p.r(C)}$$$RNA1{StrandType:ss}|RNA2{StrandType:as}$” is 79.1%; for “RNA1{r(C)p.r(G)p.r(G)p.r(A)p.r(U)p.r(C)p.m(U)p.r(A)p.m(C)p.r(A)p.r(C)p.r(C)p.r(U)p.r(U)p.m(C)p.r(A)p.r(A)p.r(G)p.r(A)p.r(T)p.r(T)}|RNA2{r(U)p.r(C)p.r(U)p.m(U)p.r(G)p.r(A)p.r(A)p.r(G)p.r(G)p.m(U)p.r(G)p.m(U)p.r(A)p.r(G)p.r(A)p.r(U)p.r(C)p.r(C)p.r(G)p.r(T)p.r(T)}$$$RNA1{StrandType:ss}|RNA2{StrandType:as}$” it is 68%. Consider “RNA1{r(C)p.m(U)p.r(G)p.r(A)p.r(C)p.r(C)p.r(G)p.r(G)p.r(A)p.r(A)p.r(G)p.r(C)p.r(G)p.r(C)p.r(U)p.m(U)p.r(A)p.r(A)p.r(A)p.r(T)p.r(T)}|RNA2{r(U)p.r(U)p.m(U)p.r(A)p.r(A)p.r(G)p.r(C)p.r(G)p.r(C)p.r(U)p.r(U)p.r(C)p.r(C)p.r(G)p.r(G)p.r(U)p.m(C)p.r(A)p.r(G)p.r(T)p.r(T)}$$$RNA1{StrandType:ss}|RNA2{StrandType:as}$”, for which the target mRNA knockdown worked out at 85%. The same measure for “RNA1{r(C)p.r(G)p.r(U)p.r(A)p.r(C)p.r(G)p.r(C)p.r(G)p.r(G)p.r(A)p.r(A)p.r(U)p.r(A)p.r(C)p.r(U)p.[s4r](U)p.[s4r](C)p.[s4r](G)p.[s4r](A)p.r(T)p.r(T)}|RNA2{r(U)p.r(C)p.r(G)p.r(A)p.r(A)p.r(G)p.r(U)p.r(A)p.r(U)p.r(U)p.r(C)p.r(C)p.r(G)p.r(C)p.r(G)p.[s4r](U)p.[s4r](A)p.[s4r](C)p.[s4r](G)p.r(T)p.r(T)}$$$RNA1{StrandType:ss}|RNA2{StrandType:as}$”: 83.4%.

The values are drawn from the OligoGym collection.
